Test results taken from US20190151229A1, “USE OF AN ESSENTIAL OIL OF EVERLASTING FLOWER IN ORDER TO INCREASE OR RESTORE TACTILE PERCEPTION” (LABORATOIRES M&L, priority 2016, published 2019).

Tested on: human sensory neurons
Assay: Effect on neurite growth in co-culture of human sensory neurons and keratinocytes
Type: cell-based
Details: NGF at 50 ng/ml, 6 days, vs control medium, p<0.05
Description: Sensory neurons are derived from iPS cells (induced Pluripotent Stem cells) which are themselves obtained from human fibroblasts. The iPSs were seeded into six-well plates coated with a thin layer of Matrigel® (Corning) in a proportion of 250 000 cells per well in a differentiation medium consisting of DMEM-F12 (Panbiotech) supplemented with 10% of Knockout Serum Replacement (KSR, Life technologies), 5 μM of CHIR 99021 (Tocris), 0.1 μM of retinoic acid (Sigma), 1 μg/ml of EPO (Erythropoietin; Peprotech), a cocktail of central differentiation pathway inhibitors and 1% of PS antibiotics (Penicilin-Streptomycin; Panbiotech). The cells were maintained in culture for 6 days at 37° C. and 5% CO2. The culture medium was changed every 2 days. Under these culture conditions, the iPSs differentiate into human sensory neurons.
At this stage, the cells were dissociated using accutase (Sigma Aldrich) for 10 minutes at 37° C. The reaction was stopped by adding culture medium. The cell suspension was centrifuged for 5 minutes at 1200 rpm. […]
Twenty photographs per culture well were taken with the automatic microscope (InCell 2000; GE Healthcare) at a ×20 magnification and the cell bodies of the sensory neurons were counted. […]

Substance: NGF: reference molecule; nerve growth factor, naturally present in the epithelium, known to stimulate neurite extension in vitro
- increase in the length of the projections of the human sensory neurons: +22.8%
